Experimental data reported in PMC11563196 (Chemical communications (Cambridge, England), 2024).
Values belong to the compound of their own block, whether it stands above or below them.

Tests used:
[1] = tested on: HDAC1; design: method as in PMID 35008795; conditions: cited from earlier work
[2] = tested on: HDAC2; design: method as in PMID 35008795; conditions: cited from earlier work
[3] = tested on: HDAC3; design: method as in PMID 35008795; conditions: cited from earlier work
[4] = biological target: T1, HDAC1 (Homo sapiens, UniProt Q13547); test: HDAC1 abundance by quantitative fluorescence western blotting in HCT116 cells; format: cell-based; conditions: for Dose response degradation of HDAC1: 24 h, 0.01-10 μM, two independent biological replicates; for HDAC1 abundance: at 0.1 μM and 1 μM
T1 construct: endogenous in cells; host or cells: HCT116 (ATCC CCL-247)
Method: (§1) We screened these compounds side-by side with JPS004 a VHL based HDAC1–3 targeting PROTAC and the HDAC1–3 inhibitor CI-994 as control compounds for degradation and inhibition, respectively. […] HCT116 cells were incubated for 24 hours with the compounds and HDAC1, HDAC2 and HDAC3 abundance was quantified by fluorescence western blotting. We also determined the effects on Histone 3 Lysine 56 acetylation (H3K56ac) levels as a secondary assay, for in-cell HDAC inhibition or degradation. […] Similar to our previous observations with VHL recruiting PROTACs, HDAC2 reduction was less affected. It was noteworthy that 7 also incorporated a 12 carbon alkyl linker, which has been an effective linker in our previous studies.[10],[11] Pleasingly, compounds 3–8 also had more modest effects on HDAC3 abundance compared to previously reported VHL recruiting PROTACs.[6]–[13] […] However, while surprising, it is not unprecedented as we and others have observed similar effects on histone acetylation markers with HDAC3 targeting PROTACs.[11],[13],[18]
(§2) Fig. 3 HDAC1, HDAC2, HDAC3 abundance were determined by quantitative western blotting with antibodies for HDAC1, HDAC2, HDAC3 in HCT116 cells after 24 hours. H3K56 acetylation levels were also determined by quantitative western blotting with an antibody for H3K56ac, and the fold change was compared between compounds at 10 μM, normalising treatment with inhibitor CI 994 = 1.0.
(§3) Supplementary Information: Biology
(§4) 1. Cell Culture, Compound Handling and Western Blotting Protocols
(§5) The HCT116 cell line used in this study was obtained from ATCC (CCL-247). HCT116 human colon carcinoma cells were grown in a Dulbecco’s modified Eagle medium (GIBCO, 41965-039) supplemented with 10% FBS (Sigma) and 1X glutamine/penicillin/streptomycin (GIBCO, 10378−016). Cells were incubated at 37 °C with 5% CO2. Cells were treated with compounds at indicated concentrations (0.01−10 μM). All compounds were made up to a standard solution of 10 mM in DMSO, serially diluted in DMSO, then added to fresh medium (5 mL total) to afford the concentrations stated (0.01−10 μM), with a final DMSO volume of […]
HCT116 cells were seeded into 6-well plates (4 × 10^5 cells/well) for 24 hours and then treated with DMSO or compounds at the indicated concentrations in fresh medium (5 mL total). After 24 hours treatment time, the cells were harvested and then lysed in lysis buffer (50 mM Tris-HCl, 150 mM NaCl, 0.5% NP-40, 0.5% Triton X-100) supplemented with a protease inhibitor (Sigma, P8340). The suspension was incubated on ice for 30 min, then centrifuged (18,000 rcf, 15 min, 4 °C) and the supernatant collected. Protein concentrations were quantified via Bradford Assay using Protein Assay Dye Reagent Concentrate (BIO-RAD). […] Western blots were run on NuPAGE 4−12% bis−Tris gels with 30 μg of protein or 10 μL of ac id-extracted histone loaded per lane, using NuPAGE LDS sample buffer (4X). PageRuler Plus Prestained Ladder was used for size standards. After gel electrophoresis at 140 V for 90 min, the separated proteins were transferred onto a nitrocellulose membrane at 30 V for 60 min. The membranes were probed with primary antibodies (as indicated below) for 60−90 min. Blots were developed with complimentary IRDye®-conjugated secondary antibodies, and the bands were visualized using an Odyssey infrared imaging system. Image processing and band intensity quantification were performed using Image Studio Lite.
(§6) 2. Western Blotting Results
(§7) 2.1. Western Blotting Analysis of Compounds 3-15 from Initial Screen
(§8) Figure S1. Western blotting of HDAC1/2/3 proteins in HCT116 cells treated with compounds 3-15.
(§9) (1 picture or pasted object on this page, not shown here)

[5] = biological target: T2, HDAC2 (Homo sapiens, UniProt Q92769); test: HDAC2 abundance by quantitative fluorescence western blotting in HCT116 cells; format: cell-based; conditions: for Dose response degradation of HDAC2: 24 h, 0.01-10 μM, two independent biological replicates; for HDAC2 abundance / degradation / HDAC2 abundance: initial screen, 24 hours; for HDAC2 abundance: at 0.1 μM and 1 μM
T2 construct: endogenous in cells; host or cells: HCT116 (ATCC CCL-247)
Method: as §1, §2, §3, §4, §5
(§10) HCT116 cells were seeded into 6-well plates (4 × 10^5 cells/well) for 24 hours and then treated with DMSO or compounds at the indicated concentrations in fresh medium (5 mL total). After 24 hours treatment time, the cells were harvested and then lysed in lysis buffer (50 mM Tris-HCl, 150 mM NaCl, 0.5% NP-40, 0.5% Triton X-100) supplemented with a protease inhibitor (Sigma, P8340). The suspension was incubated on ice for 30 min, then centrifuged (18,000 rcf, 15 min, 4 °C) and the supernatant collected. Protein concentrations were quantified via Bradford Assay using Protein Assay Dye Reagent Concentrate (BIO-RAD). For histone extraction, an equal volume of 0.4 N H2SO4 was added to the pellets, and the extracts were placed at 4 °C overnight, centrifuged (18,000 rcf, 15 min, 4 °C), then the supernatant (histone extract) collected.
(§11) Western blots were run on NuPAGE 4−12% bis−Tris gels with 30 μg of protein or 10 μL of ac id-extracted histone loaded per lane, using NuPAGE LDS sample buffer (4X). PageRuler Plus Prestained Ladder was used for size standards. After gel electrophoresis at 140 V for 90 min, the separated proteins were transferred onto a nitrocellulose membrane at 30 V for 60 min. The membranes were probed with primary antibodies (as indicated below) for 60−90 min. Blots were developed with complimentary IRDye®-conjugated secondary antibodies, and the bands were visualized using an Odyssey infrared imaging system. Image processing and band intensity quantification were performed using Image Studio Lite.
as §6, §7, §8, §9

[6] = biological target: T3, HDAC3 (Homo sapiens, UniProt O15379); test: HDAC3 abundance by quantitative fluorescence western blotting in HCT116 cells; format: cell-based; conditions: for Dose response degradation of HDAC3: 24 h, 0.01-10 μM, two independent biological replicates; for HDAC3 abundance / degradation: initial screen, 24 hours
T3 construct: endogenous in cells; host or cells: HCT116 (ATCC CCL-247)
Method: as §1, §2, §3, §4, §5, §10, §11, §6, §7, §8, §9

[7] = tested on: H3K56ac; test: Histone 3 Lysine 56 acetylation (H3K56ac) levels by quantitative western blotting in HCT116 cells; format: cell-based, human; conditions: for H3K56 acetylation levels: rescreen with methylated controls (Fig. 4C); for H3K56ac levels: initial screen, HCT116 cells, 24 hours, fold change compared at 10 μM
Method: as §1, §2, §3, §4, §5, §10
as §11, with “Blots were developed with complimentary IRDye®-conjugated secondary antibodies, and the bands were visualized using an Odyssey infrared imaging system.” left out, “Lite. […]” for “Lite.”

[8] = tested on: HDAC1; design: method as in PMID 35293758; conditions: previous findings; cited from earlier work
[9] = tested on: HDAC2; design: method as in PMID 35293758; conditions: previous findings; cited from earlier work
[10] = tested on: HDAC3; design: method as in PMID 35293758; conditions: previous findings; cited from earlier work

T1 sequence (Q13547 whole entry): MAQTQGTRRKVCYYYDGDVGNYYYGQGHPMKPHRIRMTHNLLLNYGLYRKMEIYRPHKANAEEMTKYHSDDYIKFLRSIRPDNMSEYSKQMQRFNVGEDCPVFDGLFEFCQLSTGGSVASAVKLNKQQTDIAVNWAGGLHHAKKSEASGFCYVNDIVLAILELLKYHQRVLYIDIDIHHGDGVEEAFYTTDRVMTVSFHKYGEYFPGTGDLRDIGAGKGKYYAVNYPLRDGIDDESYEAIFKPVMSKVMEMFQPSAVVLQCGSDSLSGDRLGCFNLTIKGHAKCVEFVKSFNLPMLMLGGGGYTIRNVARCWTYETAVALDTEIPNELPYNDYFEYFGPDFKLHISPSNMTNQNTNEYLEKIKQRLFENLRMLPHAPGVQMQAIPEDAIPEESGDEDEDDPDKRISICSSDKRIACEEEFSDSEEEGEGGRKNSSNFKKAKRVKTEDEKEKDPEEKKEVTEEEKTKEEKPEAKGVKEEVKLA
T2 sequence (Q92769 whole entry): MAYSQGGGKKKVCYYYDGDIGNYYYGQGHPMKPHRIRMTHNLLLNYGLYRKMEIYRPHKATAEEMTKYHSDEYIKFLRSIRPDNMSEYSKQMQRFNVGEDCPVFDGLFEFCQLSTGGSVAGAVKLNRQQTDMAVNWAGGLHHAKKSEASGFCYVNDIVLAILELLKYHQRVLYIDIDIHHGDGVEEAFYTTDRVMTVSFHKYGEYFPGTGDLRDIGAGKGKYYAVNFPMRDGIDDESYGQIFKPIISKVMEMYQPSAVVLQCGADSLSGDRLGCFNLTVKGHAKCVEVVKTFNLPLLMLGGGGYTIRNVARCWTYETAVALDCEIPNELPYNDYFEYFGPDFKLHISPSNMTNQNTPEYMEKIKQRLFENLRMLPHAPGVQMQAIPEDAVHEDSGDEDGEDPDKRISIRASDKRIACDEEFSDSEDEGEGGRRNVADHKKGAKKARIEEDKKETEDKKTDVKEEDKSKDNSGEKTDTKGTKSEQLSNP
T3 sequence (O15379 whole entry): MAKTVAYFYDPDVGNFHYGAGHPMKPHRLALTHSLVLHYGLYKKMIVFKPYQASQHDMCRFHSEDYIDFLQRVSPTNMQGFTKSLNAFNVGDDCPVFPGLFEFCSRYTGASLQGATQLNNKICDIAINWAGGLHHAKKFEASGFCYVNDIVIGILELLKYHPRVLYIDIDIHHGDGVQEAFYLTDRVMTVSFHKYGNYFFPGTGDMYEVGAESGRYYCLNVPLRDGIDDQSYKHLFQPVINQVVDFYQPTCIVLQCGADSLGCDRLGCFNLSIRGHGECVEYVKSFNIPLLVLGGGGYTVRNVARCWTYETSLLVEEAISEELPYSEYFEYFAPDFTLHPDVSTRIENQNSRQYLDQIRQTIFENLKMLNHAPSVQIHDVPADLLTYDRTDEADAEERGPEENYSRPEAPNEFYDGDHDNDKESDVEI
T3 sequence (Q9Y618 whole entry partner): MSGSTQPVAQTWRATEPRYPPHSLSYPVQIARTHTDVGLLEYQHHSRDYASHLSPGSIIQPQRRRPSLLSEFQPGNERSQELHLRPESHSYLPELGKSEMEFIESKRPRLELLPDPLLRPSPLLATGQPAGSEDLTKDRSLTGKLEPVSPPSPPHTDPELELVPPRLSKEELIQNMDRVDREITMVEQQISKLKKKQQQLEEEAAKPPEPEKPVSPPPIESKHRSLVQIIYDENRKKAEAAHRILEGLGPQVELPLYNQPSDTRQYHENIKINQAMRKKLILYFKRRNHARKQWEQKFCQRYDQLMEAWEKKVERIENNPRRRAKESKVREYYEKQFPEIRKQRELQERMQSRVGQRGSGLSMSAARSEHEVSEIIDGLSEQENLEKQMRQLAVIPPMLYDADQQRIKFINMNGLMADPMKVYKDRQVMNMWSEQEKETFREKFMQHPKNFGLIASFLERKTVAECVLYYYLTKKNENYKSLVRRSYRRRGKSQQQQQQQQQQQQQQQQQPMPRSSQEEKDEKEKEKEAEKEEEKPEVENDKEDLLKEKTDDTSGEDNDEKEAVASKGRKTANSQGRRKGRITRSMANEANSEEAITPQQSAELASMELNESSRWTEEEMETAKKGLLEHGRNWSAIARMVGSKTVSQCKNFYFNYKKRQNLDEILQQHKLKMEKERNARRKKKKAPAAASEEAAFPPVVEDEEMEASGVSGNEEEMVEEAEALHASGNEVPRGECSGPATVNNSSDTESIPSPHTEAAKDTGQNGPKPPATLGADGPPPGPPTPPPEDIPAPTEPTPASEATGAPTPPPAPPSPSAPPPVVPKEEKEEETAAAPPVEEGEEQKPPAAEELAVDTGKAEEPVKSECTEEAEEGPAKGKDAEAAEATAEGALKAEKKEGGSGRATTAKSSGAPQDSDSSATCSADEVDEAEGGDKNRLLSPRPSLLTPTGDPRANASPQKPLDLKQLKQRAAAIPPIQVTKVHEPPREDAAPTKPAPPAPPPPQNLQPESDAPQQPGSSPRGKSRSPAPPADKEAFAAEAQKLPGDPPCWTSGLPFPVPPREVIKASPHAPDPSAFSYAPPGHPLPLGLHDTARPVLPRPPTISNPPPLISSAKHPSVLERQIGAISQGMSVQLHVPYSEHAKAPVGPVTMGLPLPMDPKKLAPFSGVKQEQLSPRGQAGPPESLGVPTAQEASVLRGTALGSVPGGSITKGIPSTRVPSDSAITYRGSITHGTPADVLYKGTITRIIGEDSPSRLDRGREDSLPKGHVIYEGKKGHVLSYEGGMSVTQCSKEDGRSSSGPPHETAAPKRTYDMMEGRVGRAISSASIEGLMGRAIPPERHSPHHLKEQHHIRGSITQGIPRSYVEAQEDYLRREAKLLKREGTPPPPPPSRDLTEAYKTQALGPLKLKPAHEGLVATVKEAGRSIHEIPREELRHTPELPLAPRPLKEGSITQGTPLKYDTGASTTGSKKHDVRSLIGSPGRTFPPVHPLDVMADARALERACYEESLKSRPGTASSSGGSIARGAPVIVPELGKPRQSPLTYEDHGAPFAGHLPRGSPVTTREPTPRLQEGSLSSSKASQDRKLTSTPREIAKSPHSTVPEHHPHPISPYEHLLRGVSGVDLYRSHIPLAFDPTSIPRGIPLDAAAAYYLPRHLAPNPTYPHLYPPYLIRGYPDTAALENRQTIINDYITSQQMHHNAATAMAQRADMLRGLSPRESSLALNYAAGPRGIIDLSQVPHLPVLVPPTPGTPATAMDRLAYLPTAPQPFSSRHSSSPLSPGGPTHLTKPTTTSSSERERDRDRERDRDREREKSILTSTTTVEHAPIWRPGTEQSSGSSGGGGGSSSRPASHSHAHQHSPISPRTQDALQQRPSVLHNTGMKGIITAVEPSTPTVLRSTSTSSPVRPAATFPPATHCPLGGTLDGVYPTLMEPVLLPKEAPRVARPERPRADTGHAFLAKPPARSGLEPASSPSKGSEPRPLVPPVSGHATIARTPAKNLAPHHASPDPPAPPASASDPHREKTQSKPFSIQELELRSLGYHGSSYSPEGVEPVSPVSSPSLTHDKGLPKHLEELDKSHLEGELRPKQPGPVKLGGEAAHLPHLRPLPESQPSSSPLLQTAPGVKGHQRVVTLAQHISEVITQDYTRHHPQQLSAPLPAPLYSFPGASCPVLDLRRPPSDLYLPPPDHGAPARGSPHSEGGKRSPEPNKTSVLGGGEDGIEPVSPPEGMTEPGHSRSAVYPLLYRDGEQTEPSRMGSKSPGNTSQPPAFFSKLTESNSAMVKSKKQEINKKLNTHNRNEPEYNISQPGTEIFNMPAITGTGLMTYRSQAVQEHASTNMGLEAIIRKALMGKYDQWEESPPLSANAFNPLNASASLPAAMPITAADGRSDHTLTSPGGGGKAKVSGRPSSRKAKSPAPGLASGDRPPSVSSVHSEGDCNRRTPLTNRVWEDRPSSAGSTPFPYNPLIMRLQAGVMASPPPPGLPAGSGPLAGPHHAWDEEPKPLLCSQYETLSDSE

Dose response degradation of HDAC1 [4]: dose dependent degradation
Dose response degradation of HDAC2 [5]: dose dependent degradation
Dose response degradation of HDAC3 [6]: a hook effect was observed
Structure (SMILES): Nc1ccccc1NC(=O)c1cnc(N2CCN(C(=O)CCC3CCN(c4cccc5c4C(=O)N(C4CCC(=O)NC4=O)C5=O)CC3)CC2)cn1 (stereo not shown) [Compound 5]
H3K56 acetylation levels [7]: increasing H3K56ac levels

Dose response degradation of HDAC1 [4]: clear dose dependent HDAC1 degradation
HDAC1 degradation ([4]; initial screen, 24 hours, at 1 μM): greatest HDAC1 degradation
Dose response degradation of HDAC3 [6]: minimal HDAC3 degradation
Structure (SMILES): Nc1ccccc1NC(=O)c1cnc(N2CCN(C(=O)CCCCCCCCCCCNc3cccc4c3C(=O)N(C3CCC(=O)NC3=O)C4=O)CC2)cn1 (stereo not shown) [Compound 7]
degradation selectivity (HDAC1 over HDAC3) ([4]; 24 hours): selective degradation of HDAC1 over HDAC3
H3K56ac levels [7]: did not increase H3K56ac levels
H3K56 acetylation levels [7]: did not increase H3K56 acetylation levels

HDAC1 abundance / degradation ([4]; initial screen, 24 hours): no effects
HDAC2 abundance / degradation [5]: no effects
HDAC3 abundance / degradation [6]: no effects
Structure (SMILES): Nc1ccccc1NC(=O)c1cnc(N2CCN(C(=O)CCCCCCCC(=O)NCCNc3cccc4c3C(=O)N(C3CCC(=O)NC3=O)C4=O)CC2)cn1 (stereo not shown) [Compound 9]
H3K56ac levels [7]: increase H3K56ac levels to greater levels than DMSO controls

HDAC1 abundance / degradation ([4]; initial screen, 24 hours): no effects
HDAC2 abundance / degradation [5]: no effects
HDAC3 abundance / degradation [6]: no effects
Structure (SMILES): Nc1ccc(-c2ccc(F)cc2)cc1NC(=O)c1cnc(N2CCN(CCCCCCNc3cccc4c3C(=O)N(C3CCC(=O)NC3=O)C4=O)CC2)cn1 (stereo not shown) [Compound 10]
H3K56ac levels [7]: increase H3K56ac levels to greater levels than DMSO controls

HDAC1 abundance ([4]; initial screen, 24 hours): reduced
HDAC2 abundance [5]: reduced
HDAC3 abundance / degradation [6]: no HDAC3 degradation
Structure (SMILES): Nc1ccc(-c2ccc(F)cc2)cc1NC(=O)c1cnc(N2CCN(C(=O)CCCCCNc3cccc4c3C(=O)N(C3CCC(=O)NC3=O)C4=O)CC2)cn1 (stereo not shown) [Compound 11]

HDAC1 abundance ([4]; initial screen, 24 hours): reduced
HDAC2 abundance [5]: reduced
Dose response degradation of HDAC3 [6]: HDAC3 degradation was abolished
HDAC3 abundance / degradation [6]: no HDAC3 degradation
Structure (SMILES): Nc1ccc(-c2ccc(F)cc2)cc1NC(=O)c1cnc(N2CCN(C(=O)CCC3CCN(c4cccc5c4C(=O)N(C4CCC(=O)NC4=O)C5=O)CC3)CC2)cn1 (stereo not shown) [Compound 12]
Dose response degradation of HDAC1 [4]: very similar dose dependent degradation of HDAC1 and HDAC2 to 5
degradation selectivity (HDAC1 over HDAC3) ([4]; 24 hours): selective degradation of HDAC1 over HDAC3
Dose response degradation of HDAC2 [5]: very similar dose dependent degradation of HDAC1 and HDAC2 to 5

The remaining lines, values behind:

Structure (SMILES): Nc1ccc(-c2ccc(F)cc2)cc1NC(=O)c1cnc(N2CCNCC2)cn1 [Compound 1]
IC50 [1]: 160 nM
IC50 [2]: 340 nM
IC50 [3]: 6700 nM

Structure (SMILES): Nc1ccc(-c2ccc(F)cc2)cc1NC(=O)c1cnc(N2CCN(C(=O)CCCCCCCCCCCNc3cccc4c3C(=O)N(C3CCC(=O)NC3=O)C4=O)CC2)cn1 (stereo not shown) [Compound 14]
HDAC1 abundance / degradation ([4]; initial screen, 24 hours): less effective at HDAC1 degradation compared to 11 and 12

Structure (SMILES): Nc1ccc(-c2ccc(F)cc2)cc1NC(=O)c1cnc(N2CCN(C(=O)CCCCCCCC(=O)N3CCN(c4cccc5c4C(=O)N(C4CCC(=O)NC4=O)C5=O)CC3)CC2)cn1 (stereo not shown) [Compound 15]
HDAC1 abundance / degradation ([4]; initial screen, 24 hours): less effective at HDAC1 degradation compared to 11 and 12

Structure (SMILES): Cc1ncsc1-c1ccc(CNC(=O)[C@@H]2C[C@@H](O)CN2C(=O)[C@@H](NC(=O)CCCCCCCCCCC(=O)Nc2ccc(C(=O)Nc3ccccc3N)cc2)C(C)(C)C)cc1 [JPS004]
HDAC1 degradation [8]: degrade
HDAC2 degradation [9]: degrade
HDAC3 degradation [10]: HDAC3 degradation is compromised at concentrations >1 μM due to the hook effect

Structure (SMILES): Cc1ncsc1-c1ccc(CNC(=O)[C@@H]2C[C@@H](O)CN2C(=O)[C@@H](NC(=O)COCCCCCCCCCOCC(=O)Nc2ccc(C(=O)Nc3ccccc3N)cc2)C(C)(C)C)cc1 [JPS016]
HDAC1 degradation [8]: degrade
HDAC2 degradation [9]: degrade
HDAC3 degradation [10]: hook effect for HDAC3

Structure (SMILES): Cc1ncsc1-c1ccc(CNC(=O)[C@@H]2C[C@@H](O)CN2C(=O)[C@@H](NC(=O)C2(F)CC2)C(C)(C)C)c(OCCCCCCCCCCCC(=O)Nc2ccc(C(=O)Nc3ccccc3N)cc2)c1 [JPS036]
HDAC3 degradation selectivity over HDAC1/2 [10]: can enhance HDAC3 degradation selectivity over HDAC1/2
